Experiment in all cases: relative viability (nuclei count vs DMSO), 5 days (fraction); higher = more cells survive
Compound in the assay “4EGI-1 + Luminespib”: O=C(O)C(Cc1ccccc1[N+](=O)[O-])=NNc1nc(-c2ccc(Cl)c(Cl)c2)cs1 (mixture of isomers) [4EGI-1] + CCNC(=O)c1noc(-c2cc(C(C)C)c(O)cc2O)c1-c1ccc(CN2CCOCC2)cc1 [Luminespib] (partner 0.01 µM)
Put shortly:
(§1)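 Relative viability equals treated-well nuclei counts divided by vehicle-well nuclei counts. Counts came from 4× images of lung cancer cell lines grown in 1536-well plates for 5 days after pin-tool dosing on the day after seeding. Dosing used one drug alone or a fixed anchor-drug dose plus five library-drug doses (not always all listed) in √10 steps, and values are medians of duplicate plates.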

Compound in the assay “XMD8-85 + OSI-027”: CN1CCN(CC1)C2=CC(=C(C=C2)NC3=NC=C4C(=N3)N(C5=CC=CC=C5C(=O)N4C)C)OC [XMD8-85] + COc1cccc2cc(-c3nc([C@H]4CC[C@H](C(=O)O)CC4)n4ncnc(N)c34)[nH]c12 [OSI-027] (partner 0.5 µM)
Put shortly: as §1

Compound in the assay “4EGI-1 + Lapatinib”: O=C(O)C(Cc1ccccc1[N+](=O)[O-])=NNc1nc(-c2ccc(Cl)c(Cl)c2)cs1 (mixture of isomers) [4EGI-1] + CS(=O)(=O)CCNCc1ccc(-c2ccc3ncnc(Nc4ccc(OCc5cccc(F)c5)c(Cl)c4)c3c2)o1 [Lapatinib] (partner 2 µM)
The method in brief:
as §1

Compound in the assay “4EGI-1 + AZD7762”: O=C(O)C(Cc1ccccc1[N+](=O)[O-])=NNc1nc(-c2ccc(Cl)c(Cl)c2)cs1 (mixture of isomers) [4EGI-1] + NC(=O)Nc1cc(-c2cccc(F)c2)sc1C(=O)N[C@H]1CCCNC1 [AZD7762] (partner 0.2 µM)
Put shortly: as §1

As to NCI-H2126, the relative viability turned out to be 0.993 in the assay with 4EGI-1 + Luminespib (first compound 0.5 µM); 0.96 in the assay with 4EGI-1 + Luminespib (first compound 5 µM); 0.855 in the assay with 4EGI-1 + Luminespib (first compound 15.81 µM); 0.678 with 4EGI-1 + Luminespib (first compound 50 µM); 0.603 in the assay with XMD8-85 + OSI-027 (first compound 0.08 µM); 0.696 in the assay with XMD8-85 + OSI-027 (first compound 0.253 µM). Also, the relative viability in the assay with XMD8-85 + OSI-027 (first compound 0.8 µM) worked out at 0.739; with XMD8-85 + OSI-027 (first compound 2.53 µM), 0.855; with XMD8-85 + OSI-027 (first compound 8 µM), 0.624; with 4EGI-1 + Lapatinib (first compound 0.5 µM), 0.832; in the assay with 4EGI-1 + Lapatinib (first compound 1.581 µM) it was 0.836; with 4EGI-1 + Lapatinib (first compound 5 µM), 0.76. The relative viability with 4EGI-1 + Lapatinib (first compound 15.81 µM) was found to be 0.736; in the assay with 4EGI-1 + Lapatinib (first compound 50 µM) it was 0.643; with 4EGI-1 + AZD7762 (first compound 0.5 µM), 1.03; with 4EGI-1 + AZD7762 (first compound 1.581 µM), 1.09; with 4EGI-1 + AZD7762 (first compound 5 µM) it was 1; with 4EGI-1 + AZD7762 (first compound 15.81 µM), 0.901. Further, the relative viability with 4EGI-1 + AZD7762 (first compound 50 µM) was found to be 0.772.
With NCI-H2087, the relative viability in the assay with 4EGI-1 + Luminespib (first compound 0.5 µM) worked out at 0.191; with 4EGI-1 + Luminespib (first compound 1.581 µM), 0.139; with 4EGI-1 + Luminespib (first compound 5 µM) it was 0.198; with 4EGI-1 + Luminespib (first compound 15.81 µM), 0.206; with 4EGI-1 + Luminespib (first compound 50 µM), 0.135; in the assay with XMD8-85 + OSI-027 (first compound 0.08 µM) it was 0.612. Also, the relative viability was found to be 0.586 in the assay with XMD8-85 + OSI-027 (first compound 0.253 µM); 0.582 with XMD8-85 + OSI-027 (first compound 0.8 µM); 0.686 with XMD8-85 + OSI-027 (first compound 2.53 µM); 0.552 with XMD8-85 + OSI-027 (first compound 8 µM); 1.11 in the assay with 4EGI-1 + Lapatinib (first compound 0.5 µM); 0.934 with 4EGI-1 + Lapatinib (first compound 1.581 µM). For the same cell line, the relative viability is 1.07 with 4EGI-1 + Lapatinib (first compound 5 µM); 0.911 in the assay with 4EGI-1 + Lapatinib (first compound 15.81 µM); 0.222 with 4EGI-1 + Lapatinib (first compound 50 µM); 1.42 in the assay with 4EGI-1 + AZD7762 (first compound 0.5 µM); 1.48 in the assay with 4EGI-1 + AZD7762 (first compound 1.581 µM); 1.34 in the assay with 4EGI-1 + AZD7762 (first compound 5 µM). Moreover, the relative viability in the assay with 4EGI-1 + AZD7762 (first compound 15.81 µM) is 1.06; in the assay with 4EGI-1 + AZD7762 (first compound 50 µM), 0.391.
Consider LC-2-ad, for which the relative viability with 4EGI-1 + Luminespib (first compound 0.5 µM) was 1.13; in the assay with 4EGI-1 + Luminespib (first compound 5 µM) it was 0.906; with 4EGI-1 + Luminespib (first compound 15.81 µM), 0.385; in the assay with 4EGI-1 + Luminespib (first compound 50 µM), 0.269; with XMD8-85 + OSI-027 (first compound 0.08 µM), 0.745; with XMD8-85 + OSI-027 (first compound 0.253 µM), 0.859. Besides, the relative viability turned out to be 0.794 with XMD8-85 + OSI-027 (first compound 0.8 µM); 0.779 with XMD8-85 + OSI-027 (first compound 2.53 µM); 0.613 in the assay with XMD8-85 + OSI-027 (first compound 8 µM); 0.988 with 4EGI-1 + Lapatinib (first compound 0.5 µM); 0.89 in the assay with 4EGI-1 + Lapatinib (first compound 1.581 µM); 0.942 in the assay with 4EGI-1 + Lapatinib (first compound 5 µM). Further, the relative viability with 4EGI-1 + Lapatinib (first compound 15.81 µM) worked out at 0.228; with 4EGI-1 + Lapatinib (first compound 50 µM), 0.175; in the assay with 4EGI-1 + AZD7762 (first compound 0.5 µM) it was 0.855; with 4EGI-1 + AZD7762 (first compound 1.581 µM), 0.866; in the assay with 4EGI-1 + AZD7762 (first compound 5 µM), 0.917; in the assay with 4EGI-1 + AZD7762 (first compound 15.81 µM), 0.3. Also, in the assay with 4EGI-1 + AZD7762 (first compound 50 µM), the relative viability came to 0.208.

The record behind these values is the supplement of paper PMC10307832.
